Reference: patent US20260167656A1, “PHOSPHORAMIDATE COMPOUNDS AND USES THEREOF” (ALLORION THERAPEUTICS INC, priority 2022, published 2026)

What was measured:
[1] = system: non-small cell lung cancer cell line H460; test: In vitro human cancer cell line cytotoxicity (proliferation) assay in H460, CellTiter-Glo, 72 hours; assay type: cell-based; details: H460 cells, DMSO condition (no AKR1C3 inhibitor), read-out: CTG H460: Avg IC50 (nM) [Assay Condition: DMSO]
Method in brief: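 IC50s in nM come from CellTiter-Glo viability read after 72 h of compound exposure. Compounds went in from 10 mM DMSO stocks onto H460 cells, which had been plated at 3×10^3 per well and grown 24 h beforehand at 37 °C, 5% CO2.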

[2] = system: non-small cell lung cancer cell line H460; test: H460 proliferation assay in the presence of 3 uM ASP9521 (AKR1C3 specific inhibitor); assay type: cell-based, human; details: H460 cells, CellTiter-Glo, 72 hours, in the presence of 3 uM ASP9521 added 4 hours prior to compounds; read-out: CTG H460: Avg IC50 (nM) [Assay Condition: ASP9521]
Method in brief: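 AKR1C3 blocked with 3 uM ASP9521 given 4 h ahead of test compounds. H460 cells, plated 24 h earlier, were then treated for 72 h at 37 °C in 5% CO2. CellTiter-Glo luminescence gave viability.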

Row | SMILES | IC50 ([1]; Homo sapiens, NCI-H460, 72 h) [nM] | IC50 [2] [nM] | IC50 [1] [nM]
1 | CC(OP(=O)(N1CC1C)N1CC1C)c1ccc([N+](=O)[O-])c(Oc2cccc(C(=O)N(C)C)c2)c1 (centres unmarked) [Example 205] | < 10 | 184 | –
2 | CC1CN1P(=O)(OCc1ccc([N+](=O)[O-])c(Oc2cccc(C(=O)N(C)C)c2)c1)N1CC1C (centres unmarked) [Example 206, 3-(3-(dimethylcarbamoyl)phenoxy)-4-nitrobenzyl bis(2-methylaziridin-1-yl)phosphinate] | < 10 | 82.3 | –
3 | C[C@H]1CN1P(=O)(OCc1ccc([N+](=O)[O-])c(Oc2cccc(C(=O)N(C)C)c2)c1)N1C[C@@H]1C (some centres unmarked) [Example 207] | < 10 | 217 | –
4 | C[C@@H]1CN1P(=O)(OCc1ccc([N+](=O)[O-])c(Oc2cccc(C(=O)N(C)C)c2)c1)N1C[C@H]1C (some centres unmarked) [Example 208] | < 10 | 184 | –
5 | CC(OP(=O)(N1C[C@H]1C)N1C[C@H]1C)c1ccc([N+](=O)[O-])c(Oc2cccc(C(=O)N(C)C)c2)c1 (some centres unmarked) [Example 210] | < 10 | 294 | –
6 | CC(OP(=O)(N1C[C@@H]1C)N1C[C@@H]1C)c1ccc([N+](=O)[O-])c(Oc2cccc(C(=O)N(C)C)c2)c1 (some centres unmarked) [Example 211] | < 10 | 1270 | –
7 | CC(OP(=O)(N1C[C@H]1C)N1C[C@H]1C)c1ccc([N+](=O)[O-])c(Oc2cccc(C(=O)N(C)C)c2)c1 (some centres unmarked) [Example 212] | – | 958 | < 10
8 | CC(OP(=O)(N1C[C@@H]1C)N1C[C@@H]1C)c1ccc([N+](=O)[O-])c(Oc2ccc(C(=O)N(C)C)cc2)c1 (some centres unmarked) [Example 213] | < 10 | 1200 | –
9 | CC(OP(=O)(N1C[C@@H]1C)N1C[C@@H]1C)c1ccc([N+](=O)[O-])c(Oc2ccc(C(=O)N(C)C)cc2)c1 (some centres unmarked) [Example 214] | – | 913 | < 10
10 | CC(OP(=O)(N1C[C@H]1C)N1C[C@H]1C)c1ccc([N+](=O)[O-])c(Oc2ccc(C(=O)N(C)C)cc2)c1 (some centres unmarked) [Example 215] | < 10 | 3780 | –
11 | CC(OP(=O)(N1C[C@H]1C)N1C[C@H]1C)c1ccc([N+](=O)[O-])c(Oc2ccc(C(=O)N(C)C)cc2)c1 (some centres unmarked) [Example 216] | – | 3240 | < 10
12 | CC(OP(=O)(N1C[C@@H]1C)N1C[C@@H]1C)c1ccc([N+](=O)[O-])c(Oc2ccc(-c3ccccc3)cc2)c1 (some centres unmarked) [Example 217] | < 10 | 1600 | –
13 | CC(OP(=O)(N1C[C@H]1C)N1C[C@H]1C)c1ccc([N+](=O)[O-])c(Oc2ccc(-c3ccccc3)cc2)c1 (some centres unmarked) [Example 218] | < 10 | 1370 | –
14 | CC(OP(=O)(N1C[C@@H]1C)N1C[C@@H]1C)c1ccc([N+](=O)[O-])c(Oc2ccc(-c3ccccc3)cc2)c1 (some centres unmarked) [Example 219] | – | 2750 | < 10
15 | CC(OP(=O)(N1C[C@H]1C)N1C[C@H]1C)c1ccc([N+](=O)[O-])c(Oc2ccc(-c3ccccc3)cc2)c1 (some centres unmarked) [Example 220] | – | 5050 | < 10
16 | CC(OP(=O)(N1C[C@@H]1C)N1C[C@@H]1C)c1ccc([N+](=O)[O-])c(Oc2ccc(-c3ccc(F)cn3)c(F)c2)c1 (some centres unmarked) [Example 221] | < 10 | 1210 | –
17 | CC(OP(=O)(N1C[C@H]1C)N1C[C@H]1C)c1ccc([N+](=O)[O-])c(Oc2ccc(-c3ccc(F)cn3)c(F)c2)c1 (some centres unmarked) [Example 222] | 10 to 50 | 3260 | –
18 | CC(OP(=O)(N1C[C@@H]1C)N1C[C@@H]1C)c1ccc([N+](=O)[O-])c(Oc2ccc(-c3ccc(F)cn3)c(F)c2)c1 (some centres unmarked) [Example 223] | – | 2590 | < 10
19 | CC(OP(=O)(N1C[C@H]1C)N1C[C@H]1C)c1ccc([N+](=O)[O-])c(Oc2ccc(-c3ccc(F)cn3)c(F)c2)c1 (some centres unmarked) [Example 224] | – | 6460 | < 10
20 | C[C@@H]1CN1P(=O)(OC(c1ccc([N+](=O)[O-])c(Oc2cccc(C(=O)N(C)C)c2)c1)C(F)(F)F)N1C[C@H]1C (some centres unmarked) [Example 226] | 10 to 50 | > 10000 | –
21 | C[C@H]1CN1P(=O)(OC(c1ccc([N+](=O)[O-])c(Oc2cccc(C(=O)N(C)C)c2)c1)C(F)(F)F)N1C[C@@H]1C (some centres unmarked) [Example 227] | 10 to 50 | 9760 | –
22 | C[C@@H]1CN1P(=O)(OC(c1ccc([N+](=O)[O-])c(Oc2cccc(C(=O)N(C)C)c2)c1)C(F)(F)F)N1C[C@H]1C (some centres unmarked) [Example 228] | – | > 10000 | 10 to 50
23 | CN(C)C(=O)c1cccc(Oc2cc3cc(COP(=O)(N4CC4)N4CC4)oc3cc2[N+](=O)[O-])c1 [Example 229, (5-(3-(dimethylcarbamoyl)phenoxy)-6-nitrobenzofuran-2-yl)methyl di(aziridin-1-yl)phosphinate] | < 10 | 515 | –

Row | SMILES | IC50 ([1]; Homo sapiens, NCI-H460, 72 h) [nM] | IC50 [2] [nM] | IC50 [1] [nM]
24 | O=[N+]([O-])c1cc2oc(COP(=O)(N3CC3)N3CC3)cc2cc1Oc1ccc(-c2ccccc2)cc1 [Example 230, (5-([1,1′-biphenyl]-4-yloxy)-6-nitrobenzofuran-2-yl)methyl di(aziridin-1-yl)phosphinate] | < 10 | 846 | –
25 | O=C(c1ccc(Oc2cc3cc(COP(=O)(N4CC4)N4CC4)oc3cc2[N+](=O)[O-])cc1)N1CCOCC1 [Example 231] | < 10 | 278 | –
26 | O=C(NC1CC1)c1cccc(Oc2c([N+](=O)[O-])ccc3c2CCC3OP(=O)(N2CC2)N2CC2)c1 (centres unmarked) [Example 234] | < 10 | 865 | –
27 | O=C(c1cccc(Oc2c([N+](=O)[O-])ccc3c2CCC3OP(=O)(N2CC2)N2CC2)c1)N1CCCCC1 (centres unmarked) [Example 236] | – | 715 | < 10
28 | O=C(c1cccc(Oc2c([N+](=O)[O-])ccc3c2CCC3OP(=O)(N2CC2)N2CC2)c1)N1CCCCC1 (centres unmarked) [Example 238] | – | 1160 | < 10
29 | CN(C(=O)c1cccc(Oc2c([N+](=O)[O-])ccc3c2CCC3OP(=O)(N2CC2)N2CC2)c1)c1ccccn1 (centres unmarked) [Example 247] | – | 764 | < 10
30 | C[C@@H]1CN(C(=O)c2cccc(Oc3c([N+](=O)[O-])ccc4c3CC[C@H]4OP(=O)(N3CC3)N3CC3)c2)C[C@H](C)O1 [Example 248] | – | 1650 | < 10
31 | O=C(c1cccc(Oc2c([N+](=O)[O-])ccc3c2CCC3OP(=O)(N2CC2)N2CC2)c1)N1C[C@H]2CC[C@@H](C1)O2 (some centres unmarked) [Example 249] | < 10 | 1340 | –
32 | O=C(c1cccc(Oc2c([N+](=O)[O-])ccc3c2CCC3OP(=O)(N2CC2)N2CC2)c1)N1C[C@H]2CC[C@@H](C1)O2 (some centres unmarked) [Example 250] | – | 1220 | < 10
33 | CN(C)C(=O)c1cncc(Oc2c([N+](=O)[O-])ccc3c2CC[C@@H]3OP(=O)(N2CC2)N2CC2)c1 [Example 252] | – | 2640 | 10 to 50
34 | CN(C(=O)c1cccc(Oc2c([N+](=O)[O-])ccc3c2CC[C@@H]3OP(=O)(N2CC2)N2CC2)c1)c1cnn(C)c1 [Example 254] | – | 786 | < 10
35 | CN(C)C(=O)c1cc(Oc2c([N+](=O)[O-])ccc3c2CC[C@@H]3OP(=O)(N2CC2)N2CC2)ccc1F [Example 255] | – | 832 | < 10
36 | O=C(c1cc(Oc2c([N+](=O)[O-])ccc3c2CC[C@@H]3OP(=O)(N2CC2)N2CC2)ccc1F)N1CCC1 [Example 257] | – | 1810 | < 10
37 | O=C(c1cc(Oc2c([N+](=O)[O-])ccc3c2CC[C@@H]3OP(=O)(N2CC2)N2CC2)ccc1F)N1CC(F)(F)C1 [Example 258] | – | 2060 | < 10
38 | O=C(c1cc(Oc2c([N+](=O)[O-])ccc3c2CC[C@@H]3OP(=O)(N2CC2)N2CC2)ccc1F)N1CCCC1 [Example 259] | – | 1550 | < 10
39 | CNC(=O)c1cc(Oc2c([N+](=O)[O-])ccc3c2CC[C@@H]3OP(=O)(N2CC2)N2CC2)ccc1F [Example 260] | – | 734 | < 10
40 | O=C(NC1CC1)c1cc(Oc2c([N+](=O)[O-])ccc3c2CC[C@@H]3OP(=O)(N2CC2)N2CC2)ccc1F [Example 261] | – | 5690 | 10 to 50
41 | O=C(NC1CCC1)c1ccc(Oc2c([N+](=O)[O-])ccc3c2CC[C@H]3OP(=O)(N2CC2)N2CC2)cc1 [Example 262] | – | 945 | < 10
42 | O=C(NC1CC1)c1ccc(Oc2c([N+](=O)[O-])ccc3c2CC[C@H]3OP(=O)(N2CC2)N2CC2)cc1 [Example 263] | – | 943 | < 10
43 | Cc1ccnc(-c2ccc(Oc3c([N+](=O)[O-])ccc4c3CC[C@@H]4OP(=O)(N3CC3)N3CC3)cc2F)n1 [Example 267, (S)-4-(3-fluoro-4-(4-methylpyrimidin-2-yl)phenoxy)-5-nitro-2,3-dihydro-1H-inden-1-yl di(aziridin-1-yl)phosphinate] | < 10 | 639 | –
44 | O=[N+]([O-])c1ccc2c(c1Oc1ccc(-c3ncc(F)cn3)c(F)c1)CC[C@@H]2OP(=O)(N1CC1)N1CC1 [Example 268, (S)-4-(3-fluoro-4-(5-fluoropyrimidin-2-yl)phenoxy)-5-nitro-2,3-dihydro-1H-inden-1-yl di(aziridin-1-yl)phosphinate] | < 10 | 1110 | –
45 | O=[N+]([O-])c1ccc2c(c1Oc1ccc(-c3ncc(F)cn3)c(F)c1)CC[C@H]2OP(=O)(N1CC1)N1CC1 [Example 269, (R)-4-(3-fluoro-4-(5-fluoropyrimidin-2-yl)phenoxy)-5-nitro-2,3-dihydro-1H-inden-1-yl di(aziridin-1-yl)phosphinate] | 10 to 50 | 761 | –
46 | O=[N+]([O-])c1ccc2c(c1Oc1ccc(-c3ccc(Cl)cc3)cc1)CC[C@H]2OP(=O)(N1CC1)N1CC1 [Example 270] | – | 5550 | 10 to 50
